The record followed here is the supplement of paper PMC10307832.

What all share (assay): relative viability (nuclei count vs DMSO), 5 days (fraction); higher = more cells survive
Compound in test [1]: COc1cccc2cc(-c3nc([C@H]4CC[C@H](C(=O)O)CC4)n4ncnc(N)c34)[nH]c12 [OSI-027] + O=C(CCCCCCC(=O)Nc1ccccc1)NO [Vorinostat] (partner 1 µM)
Summed up:
(§1)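 Lung cancer cell lines, seeded in 1536-well plates, were treated the following day by pin tool with a single drug or with five library-drug doses (not always all listed) in √10 steps on top of a fixed anchor-drug dose. Cells were fixed and nuclei stained in one step after 5 days, and nuclei were counted. Relative viability is the nuclei count for treated wells divided by that for vehicle wells, reported as medians of duplicate plates.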

Compound in test [2]: Cc1nc(NC(=O)N2CCC[C@H]2C(N)=O)sc1-c1ccnc(C(C)(C)C(F)(F)F)c1 [Alpelisib] + CCNC(=O)c1noc(-c2cc(C(C)C)c(O)cc2O)c1-c1ccc(CN2CCOCC2)cc1 [Luminespib] (partner 0.01 µM)
In outline:
as §1

Compound in test [3]: COc1cccc2cc(-c3nc([C@H]4CC[C@H](C(=O)O)CC4)n4ncnc(N)c34)[nH]c12 [OSI-027] + C[C@@H](Oc1cc(-c2cnn(C3CCNCC3)c2)cnc1N)c1c(Cl)ccc(F)c1Cl [Crizotinib] (partner 1 µM)
Summed up: as §1

Compound in test [4]: CCCS(=O)(=O)Nc1ccc(F)c(C(=O)c2c[nH]c3ncc(-c4ccc(Cl)cc4)cc23)c1F [Vemurafenib] + CC1(C)CCC(c2ccc(Cl)cc2)=C(CN2CCN(c3ccc(C(=O)NS(=O)(=O)c4ccc(N[C@H](CCN5CCOCC5)CSc5ccccc5)c(S(=O)(=O)C(F)(F)F)c4)cc3)CC2)C1 [Navitoclax] (partner 0.5 µM)
In outline:
as §1

Turning to HARA, the relative viability in test [1] (first compound 0.01 µM) turned out to be 0.581; in test [1] (first compound 0.03162 µM), 0.568; in test [1] (first compound 0.3162 µM), 0.507; in test [1] (first compound 1 µM) it was 0.251; in test [2] (first compound 0.04 µM), 0.406; in test [2] (first compound 0.1265 µM) it was 0.955. Further, the relative viability in test [2] (first compound 0.4 µM) turned out to be 0.896; in test [2] (first compound 1.265 µM), 0.515; in test [2] (first compound 4 µM), 0.341; in test [3] (first compound 0.01 µM) it was 1.07; in test [3] (first compound 0.03162 µM), 0.85; in test [3] (first compound 0.1 µM), 0.999. Moreover, the relative viability in test [3] (first compound 0.3162 µM) came out at 1.09; in test [3] (first compound 1 µM) it was 0.407; in test [4] (first compound 0.03162 µM), 1.09; in test [4] (first compound 0.3162 µM), 1.13; in test [4] (first compound 1 µM) it was 1.14.
On to NCI-H2087, for which the relative viability in test [1] (first compound 0.01 µM) is 0.971; in test [1] (first compound 0.03162 µM), 0.769; in test [1] (first compound 0.1 µM), 0.613; in test [1] (first compound 0.3162 µM), 0.815; in test [1] (first compound 1 µM) it was 0.161; in test [2] (first compound 0.04 µM) it was 0.176. The relative viability in test [2] (first compound 0.1265 µM) came to 0.198; in test [2] (first compound 0.4 µM), 0.174; in test [2] (first compound 1.265 µM) it was 0.17; in test [2] (first compound 4 µM) it was 0.159; in test [3] (first compound 0.01 µM), 0.991; in test [3] (first compound 0.03162 µM), 0.971. In addition, the relative viability in test [3] (first compound 0.1 µM) stood at 0.753; in test [3] (first compound 0.3162 µM) it was 0.866; in test [3] (first compound 1 µM) it was 0.53; in test [4] (first compound 0.03162 µM), 0.936; in test [4] (first compound 0.1 µM), 0.915; in test [4] (first compound 1 µM), 0.987.
For NCI-H520, the relative viability is 0.729 in test [1] (first compound 0.01 µM); 0.712 in test [1] (first compound 0.03162 µM); 0.693 in test [1] (first compound 0.1 µM); 0.557 in test [1] (first compound 0.3162 µM); 0.368 in test [1] (first compound 1 µM); 0.18 in test [2] (first compound 0.04 µM). For the same cell line, the relative viability amounted to 0.203 in test [2] (first compound 0.1265 µM); 0.212 in test [2] (first compound 0.4 µM); 0.245 in test [2] (first compound 1.265 µM); 0.216 in test [2] (first compound 4 µM); 0.813 in test [3] (first compound 0.01 µM); 0.848 in test [3] (first compound 0.03162 µM). In addition, the relative viability in test [3] (first compound 0.1 µM) came out at 0.876; in test [3] (first compound 0.3162 µM), 0.424; in test [3] (first compound 1 µM), 0.286; in test [4] (first compound 0.03162 µM), 1.04; in test [4] (first compound 0.1 µM), 1.16; in test [4] (first compound 0.3162 µM), 1.11. Also, in test [4] (first compound 1 µM), the relative viability came out at 1.15.
For COR-L 105, the relative viability amounted to 0.552 in test [1] (first compound 0.01 µM); 0.727 in test [1] (first compound 0.03162 µM); 0.879 in test [1] (first compound 0.1 µM); 0.617 in test [1] (first compound 0.3162 µM); 0.605 in test [1] (first compound 1 µM); 0.768 in test [2] (first compound 0.04 µM). Besides, the relative viability in test [2] (first compound 0.1265 µM) amounted to 0.565; in test [2] (first compound 0.4 µM) it was 0.956; in test [2] (first compound 1.265 µM), 0.59; in test [2] (first compound 4 µM) it was 0.86; in test [3] (first compound 0.01 µM), 0.754; in test [3] (first compound 0.03162 µM) it was 0.741. In addition, the relative viability amounted to 0.766 in test [3] (first compound 0.1 µM); 0.894 in test [3] (first compound 0.3162 µM); 0.415 in test [3] (first compound 1 µM); 0.647 in test [4] (first compound 0.03162 µM); 0.815 in test [4] (first compound 0.3162 µM); 0.841 in test [4] (first compound 1 µM).
In the case of NCI-H1437, the relative viability amounted to 0.859 in test [1] (first compound 0.01 µM); 0.767 in test [1] (first compound 0.03162 µM); 0.861 in test [1] (first compound 0.1 µM); 0.848 in test [1] (first compound 0.3162 µM); 0.521 in test [1] (first compound 1 µM); 1.16 in test [2] (first compound 0.04 µM). In addition, the relative viability in test [2] (first compound 0.1265 µM) is 1.09; in test [2] (first compound 0.4 µM), 1.2; in test [2] (first compound 1.265 µM), 1.07; in test [2] (first compound 4 µM), 1.26; in test [3] (first compound 0.01 µM), 0.987; in test [3] (first compound 0.03162 µM), 0.966. Further, the relative viability in test [3] (first compound 0.1 µM) turned out to be 0.995; in test [3] (first compound 0.3162 µM) it was 0.944; in test [3] (first compound 1 µM) it was 0.441; in test [4] (first compound 0.03162 µM), 1.01; in test [4] (first compound 0.1 µM), 1.06; in test [4] (first compound 0.3162 µM), 1.05. Also, the relative viability in test [4] (first compound 1 µM) was 1.09.
